Results as given in US20220402882A1, “HERBICIDAL COMPOUNDS” (SYNGENTA CROP PROTECTION AG, priority 2019, published 2022).

Columns and labels:
Type in all cases: in vivo
Conditions in all cases: 125 g/h, evaluated after 13 days
[1] = tested on: Setaria faberi (SETFA); experiment: Pre-emergence glasshouse herbicide test
Description: (§1) Seeds of a variety of test species are sown in standard soil in pots (Lolium perenne (LOLPE), Amaranthus retoflexus (AMARE), Abutilon theophrasti (ABUTH), Setaria faberi (SETFA), Echinochloa crus-galli (ECHCG), Ipomoea hederacea (IPOHE)). After cultivation for one day (pre-emergence) or after 8 days cultivation (post-emergence) under controlled conditions in a glasshouse (at 24/16° C., day/night; 14 hours light; 65% humidity), the plants are sprayed with an aqueous spray solution derived from the formulation of the technical active ingredient in acetone/water (50:50) solution containing 0.5% Tween™ 20 (polyoxyethelyene sorbitan monolaurate, CAS RN 9005-64-5). Compounds are applied at 125 g/h unless otherwise indicated. The test plants are then grown in a glasshouse under controlled conditions in a glasshouse (at 24/16° C., day/night; 14 hours light; 65% humidity) and watered twice daily. After 13 days for pre- and post-emergence, the test is evaluated for the percentage damage caused to the plant. The biological activities are shown in the following table on a five-point scale (5=80-100%; 4=60-79%; 3=40-59%; 2=20-39%; 1=0-19%).

[2] = tested on: Echinochloa crus-galli (ECHCG); experiment: Pre-emergence glasshouse herbicide test
Description: as §1

[3] = tested on: Ipomoea hederacea (IPOHE); experiment: Pre-emergence glasshouse herbicide test
Description: as §1

[4] = tested on: Abutilon theophrasti (ABUTH); experiment: Pre-emergence glasshouse herbicide test
Description: as §1

[5] = tested on: Amaranthus retoflexus (AMARE); experiment: Pre-emergence glasshouse herbicide test
Description: as §1

[6] = tested on: Setaria faberi (SETFA); experiment: Post-emergence glasshouse herbicide test
Description: as §1

[7] = tested on: Echinochloa crus-galli (ECHCG); experiment: Post-emergence glasshouse herbicide test
Description: as §1

[8] = tested on: Ipomoea hederacea (IPOHE); experiment: Post-emergence glasshouse herbicide test
Description: as §1

[9] = tested on: Abutilon theophrasti (ABUTH); experiment: Post-emergence glasshouse herbicide test
Description: as §1

[10] = tested on: Amaranthus retoflexus (AMARE); experiment: Post-emergence glasshouse herbicide test
Description: as §1

Structure (SMILES)	percentage damage caused to the plant, SETFA [1]	percentage damage caused to the plant, ECHCG [2]	percentage damage caused to the plant, IPOHE [3]	percentage damage caused to the plant, ABUTH [4]	percentage damage caused to the plant, AMARE [5]	percentage damage caused to the plant, SETFA [6]	percentage damage caused to the plant, ECHCG [7]	percentage damage caused to the plant, IPOHE [8]	percentage damage caused to the plant, ABUTH [9]	percentage damage caused to the plant, AMARE [10]
CCS(=O)(=O)c1c(CC(F)(F)F)ccc(C(=O)Nc2nnnn2C)c1C [Compound 1.024]	5 (5=80-100%)	5 (5=80-100%)	5 (5=80-100%)	5 (5=80-100%)	5 (5=80-100%)	5 (5=80-100%)	5 (5=80-100%)	5 (5=80-100%)	5 (5=80-100%)	5 (5=80-100%)
CCS(=O)(=O)c1c(OC(F)F)ccc(C(=O)Nc2nnc(C)o2)c1Cl [Compound 2.013]	5 (5=80-100%)	5 (5=80-100%)	4 (4=60-79%)	5 (5=80-100%)	5 (5=80-100%)	5 (5=80-100%)	5 (5=80-100%)	4 (4=60-79%)	5 (5=80-100%)	5 (5=80-100%)
CC[S+]([O-])c1c(OCC(F)(F)F)ccc(C(=O)Nc2nnnn2C)c1Cl (stereo not drawn) [Compound 1.036]	5 (5=80-100%)	5 (5=80-100%)	4 (4=60-79%)	5 (5=80-100%)	5 (5=80-100%)	5 (5=80-100%)	5 (5=80-100%)	5 (5=80-100%)	5 (5=80-100%)	5 (5=80-100%)
CCS(=O)(=O)c1c(CC(F)(F)F)ccc(C(=O)Nc2nnnn2C)c1Cl [Compound 1.022]	5 (5=80-100%)	5 (5=80-100%)	5 (5=80-100%)	5 (5=80-100%)	5 (5=80-100%)	5 (5=80-100%)	5 (5=80-100%)	5 (5=80-100%)	5 (5=80-100%)	4 (4=60-79%)
CCSc1c(OCC(F)(F)F)ccc(C(=O)Nc2nnnn2C)c1C [Compound 1.038]	2 (2=20-39%)	2 (2=20-39%)	2 (2=20-39%)	4 (4=60-79%)	5 (5=80-100%)	5 (5=80-100%)	5 (5=80-100%)	4 (4=60-79%)	5 (5=80-100%)	5 (5=80-100%)
CCCSc1c(OC(F)F)ccc(C(=O)Nc2nnnn2C)c1Cl [Compound 1.066]	5 (5=80-100%)	5 (5=80-100%)	3 (3=40-59%)	5 (5=80-100%)	5 (5=80-100%)	4 (4=60-79%)	4 (4=60-79%)	5 (5=80-100%)	5 (5=80-100%)	5 (5=80-100%)
